From patent publication US9695155B2, “Herbicidal substituted pyrimidinyloxy benzene compounds” (E. I. DU PONT DE NEMOURS AND COMPANY, priority 2013, dated 2017)

Tests used:
Assay in all cases: Test E postemergence
soybean = assay type: in vivo, Glycine max; conditions: Glycine max, post-emergence; for plant response (crop injury) rating, soybean, 0-100 scale at 31 g/ha: 31 g ai/ha; for plant response (crop injury) rating, soybean, 0-100 scale at 62 g/ha: 62 g ai/ha; for plant response (crop injury) rating, soybean, 0-100 scale at 125 g/ha: 125 g ai/ha; for plant response (crop injury) rating, soybean, 0-100 scale at 16 g/ha: 16 g ai/ha
Text: (§1) Seeds of plant species selected from corn (Zea mays), soybean (Glycine max), velvetleaf (Abutilon theophrasti), lambsquarters (Chenopodium album), wild poinsettia (Euphorbia heterophylla), palmer pigweed (Amaranthus palmeri), waterhemp (common waterhemp, Amaranthus rudis), surinam grass (Brachiaria decumbens), large (Lg) crabgrass (Digitaria sanguinalis), Brazilian crabgrass (Digitaria horizontalis), fall panicum (Panicum dichotomiflorum), giant foxtail (Setaria faberii), green foxtail (Setaria viridis), goosegrass (Eleusine indica), johnsongrass (Sorghum halepense), ragweed (common ragweed, Ambrosia elatior), barnyardgrass (Echinochloa crus-galli), sandbur (southern sandbur, Cenchrus echinatus), arrowleaf sida (Sida rhombifolia), Italian ryegrass (Lolium multiflorum), dayflower (Virginia (VA) dayflower, Commelina virginica), field bindweed (Convolvulus arvensis), morningglory (Ipomoea coccinea), nightshade (eastern black nightshade, Solanum ptycanthum), kochia (Kochia scoparia), yellow nutsedge (Cyperus esculentus), cocklebur (common cocklebur, Xanthium strumarium), smartweed (ladysthumb smartweed, and hairy beggarticks (Bidens pilosa), were planted into a silt loam soil and treated preemergence with test chemicals formulated in a non-phytotoxic solvent mixture which included a surfactant.
(§2) At the same time, plants from these crop and weed species and also horseweed (Canada horseweed, Conyza canadensis), waterhemp_RES1, (ALS & Triazine resistant common waterhemp, Amaranthus rudis), and waterhemp_RES2, (ALS & HPPD resistant common waterhemp, Amaranthus rudis) were planted in pots containing Redi-Earth® planting medium (Scotts Company, 14111 Scottslawn Road, Marysville, Ohio 43041) comprising spaghnum peat moss, vermiculite, wetting agent and starter nutrients were treated with postemergence applications of test chemicals formulated in the same manner. Plants ranged in height from 2 to 18 cm for postemergence treatments (1- to 4-leaf stage). Treated plants and controls were maintained in a greenhouse for 14 to 21 days, after which time all species were compared to controls and visually evaluated. Plant response ratings, summarized in Table E, are based on a scale of 0 to 100 where 0 is no effect and 100 is complete control. A dash (-) response means no test result.

Italian ryegrass = assay type: in vivo, Lolium multiflorum; conditions: Lolium multiflorum, post-emergence, read-out: Plant response rating, Ryegrass, Italian; for pest or weed control at 31 g/ha: 31 g ai/ha; for pest or weed control at 62 g/ha: 62 g ai/ha; for pest or weed control at 125 g/ha: 125 g ai/ha; for pest or weed control at 16 g/ha: 16 g ai/ha
Text: as §1, §2

hairy beggarticks = assay type: in vivo, Bidens pilosa; conditions: Bidens pilosa, post-emergence, read-out: Plant response rating, Beggarticks; for pest or weed control at 31 g/ha: 31 g ai/ha; for pest or weed control at 62 g/ha: 62 g ai/ha; for pest or weed control at 125 g/ha: 125 g ai/ha; for pest or weed control at 16 g/ha: 16 g ai/ha
Text: as §1, §2

wild poinsettia = assay type: in vivo, Euphorbia heterophylla; conditions: Euphorbia heterophylla, post-emergence, read-out: Plant response rating, Poinsettia, Wild; for pest or weed control at 31 g/ha: 31 g ai/ha; for pest or weed control at 62 g/ha: 62 g ai/ha; for pest or weed control at 125 g/ha: 125 g ai/ha; for pest or weed control at 16 g/ha: 16 g ai/ha
Method in brief: (§3)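 Compound in a non-phytotoxic solvent mixture with surfactant was applied preemergence to seeds in silt loam soil, or postemergence to plants 2 to 18 cm tall grown in peat-based potting medium. Plants were kept in a greenhouse for 14 to 21 days, then rated visually against untreated controls on a 0 (no effect) to 100 (complete control) scale.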

arrowleaf sida = assay type: in vivo, Sida rhombifolia; conditions: Sida rhombifolia, post-emergence, read-out: Plant response rating, Arrowleaf Sida; for pest or weed control at 31 g/ha: 31 g ai/ha; for pest or weed control at 62 g/ha: 62 g ai/ha; for pest or weed control at 125 g/ha: 125 g ai/ha; for pest or weed control at 16 g/ha: 16 g ai/ha
Method in brief: as §3

field bindweed = assay type: in vivo, Convolvulus arvensis; conditions: Convolvulus arvensis, post-emergence, read-out: Plant response rating, Field Bindweed; for pest or weed control at 31 g/ha: 31 g ai/ha; for pest or weed control at 62 g/ha: 62 g ai/ha; for pest or weed control at 125 g/ha: 125 g ai/ha; for pest or weed control at 16 g/ha: 16 g ai/ha
Text: as §1, §2

dayflower = assay type: in vivo, Commelina virginica; conditions: Commelina virginica, post-emergence, read-out: Plant response rating, Dayflower, VA; for pest or weed control at 31 g/ha: 31 g ai/ha; for pest or weed control at 62 g/ha: 62 g ai/ha; for pest or weed control at 125 g/ha: 125 g ai/ha; for pest or weed control at 16 g/ha: 16 g ai/ha
Text: as §1, §2

[1] = Postemergence, 250 g ai/ha, scale 0 to 100
[2] = postemergence, scale 0 to 100, 0 no effect, 100 complete control
[3] = postemergence, 8 g ai/ha, scale 0 to 100, 0 no effect, 100 complete control

Structure (SMILES) | plant response (crop injury) rating, soybean, 0-100 scale at 31 g/ha (soybean; Postemergence, scale 0 to 100) | plant response (crop injury) rating, soybean, 0-100 scale at 62 g/ha (soybean; Postemergence, scale 0 to 100) | plant response (crop injury) rating, soybean, 0-100 scale at 125 g/ha (soybean; Postemergence, scale 0 to 100) | plant response (crop injury) rating, soybean, 0-100 scale at 16 g/ha (soybean; [2]) | pest or weed control at 31 g/ha (Italian ryegrass; Postemergence, scale 0 to 100) | pest or weed control at 62 g/ha (Italian ryegrass; Postemergence, scale 0 to 100) | pest or weed control at 125 g/ha (Italian ryegrass; Postemergence, scale 0 to 100) | pest or weed control at 16 g/ha (Italian ryegrass; [2]) | pest or weed control at 31 g/ha (hairy beggarticks; Postemergence, scale 0 to 100) | pest or weed control at 62 g/ha (hairy beggarticks; Postemergence, scale 0 to 100) | pest or weed control at 125 g/ha (hairy beggarticks; Postemergence, scale 0 to 100) | pest or weed control at 16 g/ha (hairy beggarticks; [2]) | pest or weed control at 31 g/ha (wild poinsettia; Postemergence, scale 0 to 100) | pest or weed control at 62 g/ha (wild poinsettia; Postemergence, scale 0 to 100) | pest or weed control at 125 g/ha (wild poinsettia; Postemergence, scale 0 to 100) | pest or weed control at 16 g/ha (wild poinsettia; [2]) | pest or weed control at 31 g/ha (arrowleaf sida; Postemergence, scale 0 to 100) | pest or weed control at 62 g/ha (arrowleaf sida; Postemergence, scale 0 to 100) | pest or weed control at 125 g/ha (arrowleaf sida; Postemergence, scale 0 to 100) | pest or weed control at 16 g/ha (arrowleaf sida; [2]) | further results
Clc1cnn(-c2ccccc2Oc2ncc(Br)cn2)c1 [Compound 5, 5-bromo-2-[2-(4-chloro-1H-pyrazol-1-yl)phenoxy]pyrimidine] | 30% | 70% | 80% | 20% | 0% | 0% | 0% | 0% | 40% | 60% | 60% | 30% | 20% | 30% | 35% | 10% | 60% | 70% | 80% | 60% | plant response (crop injury) rating, soybean, 0-100 scale at 250 g/ha (soybean; [1]): 95%; pest or weed control at 250 g/ha (Italian ryegrass; [1]): 0%; pest or weed control at 250 g/ha (hairy beggarticks; [1]): 70%; pest or weed control at 250 g/ha (wild poinsettia; [1]): 50%; pest or weed control at 250 g/ha (arrowleaf sida; [1]): 85%; pest or weed control at 31 g/ha (field bindweed; Postemergence, scale 0 to 100): 20%; pest or weed control at 62 g/ha (field bindweed; Postemergence, scale 0 to 100): 30%; pest or weed control at 125 g/ha (field bindweed; Postemergence, scale 0 to 100): 30%; pest or weed control at 250 g/ha (field bindweed; [1]): 40%; pest or weed control at 16 g/ha (field bindweed; [2]): 10%; pest or weed control at 31 g/ha (dayflower; Postemergence, scale 0 to 100): 10%; pest or weed control at 62 g/ha (dayflower; Postemergence, scale 0 to 100): 10%; pest or weed control at 125 g/ha (dayflower; Postemergence, scale 0 to 100): 40%; pest or weed control at 250 g/ha (dayflower; [1]): 75%; pest or weed control at 16 g/ha (dayflower; [2]): 0%
N#Cc1cccc(Oc2ncc(Cl)cn2)c1-n1cc(OCC(F)(F)F)cn1 [Compound 274, 3-[(5-chloro-2-pyrimidinyl)oxy]-2-[4-(2,2,2-trifluoroethoxy)-1H-pyrazol-1-yl]benzonitrile] | 75% | 95% | 95% | 35% | 10% | 10% | 40% | 5% | 60% | 70% | 95% | 50% | 70% | 70% | 70% | 65% | 60% | 75% | 85% | 75% | plant response (crop injury) rating, soybean, 0-100 scale at 8 g/ha (soybean; [3]): 20%; pest or weed control at 8 g/ha (Italian ryegrass; [3]): 0%; pest or weed control at 8 g/ha (hairy beggarticks; [3]): 30%; pest or weed control at 8 g/ha (wild poinsettia; [3]): 50%; pest or weed control at 8 g/ha (arrowleaf sida; [3]): 55%; pest or weed control at 31 g/ha (field bindweed; Postemergence, scale 0 to 100): 50%; pest or weed control at 62 g/ha (field bindweed; Postemergence, scale 0 to 100): 70%; pest or weed control at 125 g/ha (field bindweed; Postemergence, scale 0 to 100): 75%; pest or weed control at 8 g/ha (field bindweed; [3]): 60%; pest or weed control at 16 g/ha (field bindweed; [2]): 50%; pest or weed control at 31 g/ha (dayflower; Postemergence, scale 0 to 100): 20%; pest or weed control at 62 g/ha (dayflower; Postemergence, scale 0 to 100): 40%; pest or weed control at 125 g/ha (dayflower; Postemergence, scale 0 to 100): 70%; pest or weed control at 8 g/ha (dayflower; [3]): 5%; pest or weed control at 16 g/ha (dayflower; [2]): 10%
